Patent US20010041676A1, “Glycosides and orthoester glycosides of glucocorticoids and uses thereof” (priority 2000, published 2001)
Like-named read-outs stand apart in the source and are kept apart here.

Legend:
[1] = in vivo; details: rat, serum, 20 mg
[2] = rat serum; for Serum prednisolone-glycoside: prednisolone-glucoside group (29 mg); for Serum Prednisolone: prednisolone-glucoside group (29 mg, 20 mg equivalent)
[3] = pH 1.0, 20 mg/ml, room temperature, up to 72 hours

Row | concentration at 30 min [1] [ng/mL] | concentration at 60 min [1] [ng/mL] | Compound | Serum prednisolone-glycoside ([2]; 30 mins) [ng/mL] | Serum prednisolone-glycoside ([2]; 60 mins) [ng/mL] | Serum Prednisolone ([2]; 30 mins) [ng/mL] | Serum Prednisolone ([2]; 60 mins) [ng/mL] | Acid stability (qualitative, TLC) [3]
1 | 350 | 156 | C[C@]12C=CC(=O)C=C1CC[C@@H]1[C@@H]2[C@@H](O)C[C@@]2(C)[C@H]1CC[C@]2(O)C(=O)CO [Prednisolone, prednisolone] |  |  |  |  | 
2 |  |  | C[C@]12C=CC(=O)C=C1CC[C@@H]1[C@@H]2[C@@H](O)C[C@@]2(C)[C@H]1CC[C@]2(O)C(=O)CO[C@@H]1O[C@H](CO)[C@@H](O)[C@H](O)[C@H]1O [Prednisolone-glucoside, 1,4-pregnadiene-11β-17α-diol-21-O-1′-β′-glucopyranosyl-3,20-dione] | 639 | 0 | 861 | 349.5 | stable
